# Results reported in US20020137929A1, “1 - (3-heterocyclylphenyl) isothiourea, -isourea, -guanidine and -amidine herbicidal agents” (Intellectual Property Department, BASF Aktiengesellschaft, priority 1998, published 2002).
# Tests used:
# ABUTH (Velvetleaf) = test: Preemergence herbicidal evaluation; type: in vivo, Abutilon theophrasti; details: rated 4-5 weeks after treatment
# Outline: (§1)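 Test compound, dissolved in aqueous acetone, was sprayed over planted soil cups at an equivalent of about 0.0156 to 0.500 kg/ha; seeds had been mixed with potting soil. Greenhouse growth followed, with visual 0-9 scoring of injury at four to five weeks.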
# ZEAMX (Corn, Field) = test: Preemergence herbicidal evaluation; type: in vivo, Zea mays; details: rated 4-5 weeks after treatment
# Outline: as §1
# [1] = system: ECHORC (Watergrass (Calif.)); test: Postemergence weed control under flooded paddy conditions; type: in vivo, Echinochloa oryzoides; details: postemergence weeds, 3-4 weeks after treatment
# Outline: (§2)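 Flood-water application, about 0.0313–0.500 kg/ha a.i. in aqueous/acetone 50/50 v/v; water depth 1.5–3 cm throughout. Weeds 3–5 cm, rice 1.5–2.5 leaf. Greenhouse; 0–9 visual rating vs control at 3–4 wk.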
# [2] = system: SAGPY (Arrowhead (Pygmaea)); test: as above; type: in vivo, Sagittaria pygmaea; details: postemergence weeds, 3-4 weeks after treatment
# Outline: as §2
# GALAP (Galium) = test: Postemergence herbicidal evaluation; type: in vivo, Galium aparine
# Outline: (§3)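 Two-week seedlings sprayed postemergence at 40 psi; formulation: 1:1 acetone/water, 0.5% TWEEN 20; application ≈0.0156–0.500 kg/ha. Greenhouse grow-out, then 0–9 visual scoring at 4–5 weeks.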
# [3] = system: IPOHE (Morningglory, Ivyleaf); test: Preemergence herbicidal evaluation; type: in vivo, Ipomoea hederacea; details: rated 4-5 weeks after treatment
# Outline: as §1
# [4] = system: ECHORC (Watergrass (Calif.)); test: Preemergence weed control under flooded paddy conditions; type: in vivo, Echinochloa oryzoides; details: rated 3-4 weeks after treatment
# Outline: (§4)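 Herbicidal effect is scored visually on a 0-9 scale against an untreated control, three to four weeks after compounds are pipetted into the flood water (1.5 to 3 cm deep) over seeds planted in silt loam at 0.5 cm depth. Rates: about 0.0313 to 0.500 kg/ha.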
# [5] = system: IPOHE (Morningglory, Ivyleaf); test: Postemergence herbicidal evaluation; type: in vivo, Ipomoea hederacea
# Outline: as §3
# ECHCG (Barnyardgrass) = test: Preemergence herbicidal evaluation; type: in vivo, Echinochloa crus-galli; details: rated 4-5 weeks after treatment
# Outline: as §1
# CYPIR (Rice Flatsedge) = test: Preemergence weed control under flooded paddy conditions; type: in vivo, Cyperus iria; details: rated 3-4 weeks after treatment
# Outline: as §4
# MOOVA (Monochoria) = test: as above; type: in vivo, Monochoria vaginalis; details: rated 3-4 weeks after treatment
# Outline: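 Greenhouse paddy assay. Acetone/water (50/50 v/v) solutions dosed into flood water, equivalent to about 0.0313 to 0.500 kg/ha active ingredient, over seeds planted 0.5 cm deep in silt loam. Score: 0-9 visual, based on stand, vigor, malformation, size and chlorosis, 3 to 4 weeks after treatment.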
# [6] = system: TRZAWR (Wheat, Winter, cv Riband); test: Postemergence herbicidal evaluation; type: in vivo, Triticum aestivum
# Outline: as §3
# SETVI (Foxtail, Green) [7] = test: Preemergence herbicidal evaluation; type: in vivo, Setaria viridis; details: rated 4-5 weeks after treatment
# Outline: as §1
# SETVI (Foxtail, Green) [8] = test: Postemergence herbicidal evaluation; type: in vivo, Setaria viridis
# Outline: as §3
smiles,measurement,setting,value
"Cn1c(C(F)(F)F)cc(=O)n(-c2cc(N=C3SCC(=O)N3CCC(=O)O)c(Cl)cc2F)c1=O [Compound 30, 2-{{2-Chloro-5-[3,6-dihydro-3-methyl-2,6-dioxo-4-(trifluoromethyl)-1(2H)-pyrimidinyl]-4-fluorophenyl}imino}-4-oxo-3-thiazolidinepropionic acid]",Preemergence herbicidal rating ABUTH,ABUTH (Velvetleaf); rate 0.0313 kg/ha,9.0
same,Preemergence herbicidal rating ABUTH,ABUTH (Velvetleaf); rate 0.0625 kg/ha,9.0
same,Preemergence herbicidal rating ABUTH,ABUTH (Velvetleaf); rate 0.1250 kg/ha,9.0
same,Preemergence herbicidal rating ABUTH,ABUTH (Velvetleaf); rate 0.2500 kg/ha,9.0
same,Preemergence herbicidal rating ZEAMX,"ZEAMX (Corn, Field); rate 0.0313 kg/ha",1.0
same,Preemergence herbicidal rating ZEAMX,"ZEAMX (Corn, Field); rate 0.0625 kg/ha",3.0
same,Preemergence herbicidal rating ZEAMX,"ZEAMX (Corn, Field); rate 0.1250 kg/ha",3.0
same,Preemergence herbicidal rating ZEAMX,"ZEAMX (Corn, Field); rate 0.2500 kg/ha",6.0
same,Herbicidal rating ECHORC,[1]; rate 0.1250 kg/ha,0.0
same,Herbicidal rating ECHORC,[1]; rate 0.2500 kg/ha,0.0
same,Herbicidal rating SAGPY,[2]; rate 0.1250 kg/ha,0.0
same,Herbicidal rating SAGPY,[2]; rate 0.2500 kg/ha,2.0
same,Postemergence herbicidal rating GALAP,GALAP (Galium); Rate 0.0158 kg/ha,0.0
same,Postemergence herbicidal rating GALAP,GALAP (Galium); Rate 0.0315 kg/ha,0.0
same,Postemergence herbicidal rating GALAP,GALAP (Galium); Rate 0.0630 kg/ha,0.0
same,Preemergence herbicidal rating IPOHE,[3]; rate 0.0313 kg/ha,0.0
same,Preemergence herbicidal rating IPOHE,[3]; rate 0.0625 kg/ha,0.0
same,Preemergence herbicidal rating IPOHE,[3]; rate 0.1250 kg/ha,1.0
same,Preemergence herbicidal rating IPOHE,[3]; rate 0.2500 kg/ha,2.0
same,Herbicidal rating ECHORC,[4]; 0.1250 kg/ha,0.0
same,Herbicidal rating ECHORC,[4]; 0.2500 kg/ha,0.0
same,Postemergence herbicidal rating IPOHE,[5]; Rate 0.0158 kg/ha,0.0
same,Postemergence herbicidal rating IPOHE,[5]; Rate 0.0315 kg/ha,0.0
same,Postemergence herbicidal rating IPOHE,[5]; Rate 0.0630 kg/ha,9.0
same,Preemergence herbicidal rating ECHCG,ECHCG (Barnyardgrass); rate 0.0313 kg/ha,0.0
same,Preemergence herbicidal rating ECHCG,ECHCG (Barnyardgrass); rate 0.0625 kg/ha,0.0
same,Preemergence herbicidal rating ECHCG,ECHCG (Barnyardgrass); rate 0.1250 kg/ha,0.0
same,Preemergence herbicidal rating ECHCG,ECHCG (Barnyardgrass); rate 0.2500 kg/ha,0.0
same,Herbicidal rating CYPIR,CYPIR (Rice Flatsedge); 0.1250 kg/ha,2.0
same,Herbicidal rating CYPIR,CYPIR (Rice Flatsedge); 0.2500 kg/ha,4.5
same,Herbicidal rating MOOVA,MOOVA (Monochoria); 0.1250 kg/ha,1.5
same,Herbicidal rating MOOVA,MOOVA (Monochoria); 0.2500 kg/ha,4.5
same,Postemergence herbicidal rating TRZAWR,[6]; Rate 0.0158 kg/ha,4.0
same,Postemergence herbicidal rating TRZAWR,[6]; Rate 0.0315 kg/ha,4.5
same,Postemergence herbicidal rating TRZAWR,[6]; Rate 0.0630 kg/ha,5.5
same,Preemergence herbicidal rating SETVI,"SETVI (Foxtail, Green) [7]; rate 0.0313 kg/ha",0.0
same,Preemergence herbicidal rating SETVI,"SETVI (Foxtail, Green) [7]; rate 0.0625 kg/ha",0.0
same,Preemergence herbicidal rating SETVI,"SETVI (Foxtail, Green) [7]; rate 0.1250 kg/ha",7.0
same,Preemergence herbicidal rating SETVI,"SETVI (Foxtail, Green) [7]; rate 0.2500 kg/ha",9.0
same,Postemergence herbicidal rating SETVI,"SETVI (Foxtail, Green) [8]; Rate 0.0158 kg/ha",0.0
same,Postemergence herbicidal rating SETVI,"SETVI (Foxtail, Green) [8]; Rate 0.0315 kg/ha",0.0
same,Postemergence herbicidal rating SETVI,"SETVI (Foxtail, Green) [8]; Rate 0.0630 kg/ha",0.0
